In ChEMBL document CHEMBL5107992, “Development of potent non-acylhydrazone inhibitors of intestinal sodium-dependent phosphate transport protein 2b (NaPi2b)” (Bioorg Med Chem, 2022):
Values after ≈ are worked out from the molar mass of the structure shown.

Key:
[1] = biological target: T1, Sodium-dependent phosphate transport protein 2B (Homo sapiens, UniProt O95436); assay: Inhibition of human NaPi2b transfected in human KJMGER8 cells assessed as reduction in H2[33P]O4 uptake incubated for 60 mins by TopCount scintillation counting method; format: cell-based
T1 sequence (O95436 whole entry): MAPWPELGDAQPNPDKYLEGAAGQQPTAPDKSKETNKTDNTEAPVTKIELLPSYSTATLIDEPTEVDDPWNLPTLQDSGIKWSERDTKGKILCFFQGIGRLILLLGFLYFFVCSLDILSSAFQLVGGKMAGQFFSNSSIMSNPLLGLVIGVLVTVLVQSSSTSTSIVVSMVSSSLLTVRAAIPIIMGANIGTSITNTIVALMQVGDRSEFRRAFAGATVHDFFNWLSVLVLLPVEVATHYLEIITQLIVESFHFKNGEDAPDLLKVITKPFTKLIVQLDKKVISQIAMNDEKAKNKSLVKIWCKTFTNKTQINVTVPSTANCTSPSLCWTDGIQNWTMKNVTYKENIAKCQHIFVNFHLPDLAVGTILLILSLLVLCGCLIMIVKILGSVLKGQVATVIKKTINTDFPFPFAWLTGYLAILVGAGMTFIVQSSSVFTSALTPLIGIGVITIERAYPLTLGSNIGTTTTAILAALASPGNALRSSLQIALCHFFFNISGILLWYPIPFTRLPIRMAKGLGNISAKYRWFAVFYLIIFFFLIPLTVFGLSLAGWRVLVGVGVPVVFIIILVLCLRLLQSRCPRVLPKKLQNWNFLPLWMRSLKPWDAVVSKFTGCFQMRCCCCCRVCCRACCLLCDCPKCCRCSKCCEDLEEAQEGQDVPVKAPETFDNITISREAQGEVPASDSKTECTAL

[2] = Aqueous solubility of compound in PBS buffer at pH 7.4; format: physicochemical
[3] = Intestinal availability in rat at 3 mg/kg, po measured after 120 mins by LC/MS-MS analysis; format: ADME, organism-based; details: in vivo, 2 h
[4] = Aqueous solubility of compound in PBS buffer at pH 6; format: physicochemical
[5] = Membrane permeability of compound; format: ADME; details: not told; read-out: permeability
[6] = Intestinal availability in Sprague-Dawley rat; format: ADME

IC50 [1] | solubility [2] | Compound | also measured
1400 nM | 81 µM (≈ 56.6 µg/mL) | CC1(C)CCc2c(sc(NC(=O)c3cccc(COCCOCCOCCOCCOCCOCCO)c3)c2C(=O)Nc2ccccc2)C1 | 
43 nM | 79 µM (≈ 73.3 µg/mL) | Cc1cc(NC(=O)c2c(NC(=O)c3cccc(OCCOCCOCCOCCOCCOCCOCC(=O)O)c3)sc3c2CCC(C)(C)C3)ccc1CCc1ccc(-c2ncco2)cc1 | 
< 100 nM | 0.72 µM (≈ 0.63 µg/mL) | COC(=O)c1ccc(CCc2ccc(NC(=O)c3c(NC(=O)c4cccc(COCCOCCOCCOCCOCCOCCO)c4)sc4c3CCC(C)(C)C4)cc2C)cc1 | 
< 100 nM | 1.6 µM (≈ 1.36 µg/mL) | COC(=O)c1ccc(CCc2ccc(NC(=O)c3c(NC(=O)c4cccc(OCCOCCOCCOCCOCCOCCO)c4)sc4c3CCC(C)(C)C4)cc2)cc1 | 
< 100 nM | 0.39 µM (≈ 0.284 µg/mL) | CCc1ccc(NC(=O)c2c(NC(=O)c3cccc(COCCOCCOCCOCCOCCOCCO)c3)sc3c2CCC(C)(C)C3)cc1 | 

The remaining lines, values behind:

Compound | IC50 [1] | solubility [2] | also measured
CC1(C)CCc2c(sc3nc(-c4cccc(COCCOCCOCCOCCOCCOCCO)c4)oc(=O)c23)C1 | 2880 nM | 36 µM (≈ 21.8 µg/mL) | 
Cc1nnc(-c2ccc(CCc3ccc(NC(=O)c4c(NC(=O)c5cccc(CN(C)CCOCCOCCOCCC(=O)O)c5)sc5c4CCC(C)(C)C5)cc3)cc2)o1 | 14 nM | 96 µM (≈ 80.5 µg/mL) | FaFg [3]: 5.9%; solubility [4]: 52 µM (≈ 43.6 µg/mL); Papp [5]: < 0.09 ×10⁻⁶ cm/s
COCCN(CCOCCOCCOCCOCCOCCOCc1cccc(C(=O)Nc2sc3c(c2C(=O)N/N=C/c2ccc(Cl)c(C(F)(F)F)c2)CCC(C)(C)C3)c1)CC(=O)O |  |  | FaFg [6]: 0.1%
Cc1nnc(-c2ccc(CCc3ccc(NC(=O)c4c(NC(=O)c5cccc(COCCOCCOCCOCCOCCOCCOCC(=O)O)c5)sc5c4CCC(C)(C)C5)cc3)cc2)o1 | 103 nM | 62 µM (≈ 58.5 µg/mL) | 
Cc1nnc(-c2ccc(CCc3ccc(NC(=O)c4c(NC(=O)c5cccc(COCCOCCOCCOCC(=O)O)c5)sc5c4CCC(C)(C)C5)cc3)cc2)o1 | 61 nM | 156 µM (≈ 127 µg/mL) | 
Cc1nnc(-c2ccc(CCc3ccc(NC(=O)c4c(NC(=O)c5cccc(CSCCOCCOCCOCCOCCOCCOCCOCCOCCC(=O)O)c5)sc5c4CCC(C)(C)C5)cc3)cc2)o1 | 24 nM | 91 µM (≈ 96.6 µg/mL) | 
COc1ccc(NC(=O)c2c(NC(=O)c3cccc(COCCOCCOCCOCCOCCOCCO)c3)sc3c2CCC(C)(C)C3)cc1 | 1140 nM | 2.3 µM (≈ 1.68 µg/mL) | 
CCC(CC)N(CCN(C)C(=O)CCC(=O)NCCOCCOCCOCCO)Cc1cccc(C(=O)Nc2sc3c(c2C(=O)c2cnn(-c4ccc(Cl)c(C(F)(F)F)c4)c2)CCC(C)(C)C3)c1 |  |  | FaFg [6]: 0.2%
CC1(C)CCc2c(sc(NC(=O)c3cccc(OCCOCCOCCOCCOCCOCCO)c3)c2C(=O)Nc2ccc(CCc3ccc(C(=O)O)cc3)cc2)C1 | < 100 nM | 115 µM (≈ 95.8 µg/mL) | 
Cc1cc(NC(=O)c2c(NC(=O)c3cccc(OCCOCCOCCOCCOCCOCCOCC(=O)O)c3)sc3c2CCC(C)(C)C3)ccc1CCc1ccc(-c2nccs2)cc1 | 288 nM | 87 µM (≈ 82.1 µg/mL) | 
CC1(C)CCc2c(sc(NC(=O)c3cccc(COCCOCCOCCOCCOCCOCCO)c3)c2C(=O)Nc2ccc(Cc3ccccc3)cc2)C1 | < 100 nM | 0.48 µM (≈ 0.379 µg/mL) | 
COC(=O)c1ccc(CCc2ccc(NC(=O)c3c(NC(=O)c4cccc(OCCOCCOCCOCCOCCOCCOCC(=O)O)c4)sc4c3CCC(C)(C)C4)cc2C)cc1 | 71 nM | 116 µM (≈ 107 µg/mL) | 
